Assay results from patent US9650365B2 (UNIVERSITY OF CONNECTICUT, priority 2014, dated 2017).
Read-outs that look alike come from different tables or passages of the source.

Columns and labels:
[1] = BBB-PAMPA; type: in vitro ADME; settings: preliminary studies, read-out: apparent permeability (Papp)
From the text: (§1) Each analogue will also be evaluated in assays to develop SPR for the ability of the scaffold to penetrate the BBB and accumulate in the brain. First, a standard BBB-PAMPA assay will be used to predict the ability to passively diffuse across the BBB. In this method, an artificial membrane that has been designed to mimic the BBB is immobilized on a filter between a donor and acceptor compartment. […] For these assays, Madin Darby canine kidney cells (MDCK) are transfected with either P-gp or BCRP and grown to confluence on filter inserts in a transwell apparatus analogous to that used for the PAMPA assay. Analogue (10 μM) is added to either the donor or acceptor compartment and following a 60 min incubation period, compound concentrations in both compartments are quantified via LC/MS/MS. […] The fluorescent dye lucifer yellow will be utilized to ensure membrane integrity in the transporter assays. The BBB-PAMPA assay and both transporter assays will be performed in collaboration with the Sanford-Burnham Exploratory Pharmacology Core Facility.

[2] = biological target: T1, BCRP (Homo sapiens, UniProt Q9UNQ0); experiment: BCRP transporter substrate assay; type: in vitro ADME
T1 construct: expressed in transfected cells; host or cells: Madin Darby canine kidney cells (MDCK)
T1 sequence (Q9UNQ0 1-655): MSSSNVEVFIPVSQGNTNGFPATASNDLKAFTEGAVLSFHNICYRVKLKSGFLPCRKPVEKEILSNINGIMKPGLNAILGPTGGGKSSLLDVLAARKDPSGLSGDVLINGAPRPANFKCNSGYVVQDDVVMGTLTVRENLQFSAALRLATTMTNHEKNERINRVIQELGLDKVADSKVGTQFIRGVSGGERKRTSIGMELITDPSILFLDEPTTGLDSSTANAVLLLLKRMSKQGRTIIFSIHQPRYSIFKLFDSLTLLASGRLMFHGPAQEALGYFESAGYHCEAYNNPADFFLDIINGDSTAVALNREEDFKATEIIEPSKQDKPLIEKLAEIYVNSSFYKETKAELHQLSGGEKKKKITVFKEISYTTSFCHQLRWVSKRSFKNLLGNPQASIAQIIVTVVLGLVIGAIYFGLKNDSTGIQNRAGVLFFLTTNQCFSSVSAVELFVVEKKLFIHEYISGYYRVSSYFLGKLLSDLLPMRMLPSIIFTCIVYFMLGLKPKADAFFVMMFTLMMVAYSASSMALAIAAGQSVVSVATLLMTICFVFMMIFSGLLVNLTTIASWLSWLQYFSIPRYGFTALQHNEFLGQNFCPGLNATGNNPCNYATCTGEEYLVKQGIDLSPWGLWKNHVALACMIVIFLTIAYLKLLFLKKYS
From the text: as §1

[3] = system: Hh signaling (Gli1 mRNA) in ASZ cells; experiment: Down-regulation of endogenous Gli1 mRNA in ASZ cells; type: cell-based, murine; settings: Mus musculus
How it was run: (§2)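 Hh pathway activated in C3H10T1/2 cells with exogenous agonist (recombinant Hh ligand or small molecule) alongside inhibitor; Gli1 mRNA measured by qPCR. Concentration-dependent Gli1 reduction also assessed in murine BCC ASZ cells; values mean±SEM, ≥2 experiments in triplicate.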

[4] = system: Gli1 in DAOYs (cultured MB); experiment: Down-regulation of Gli1 in DAOY cells; type: cell-based; settings: Homo sapiens
From the text: Additional analogues have been synthesized and characterized in the assays described above.

[5] = system: HUVEC; experiment: HUVEC proliferation (MTS); type: cell-based, human; settings: Homo sapiens, HUVEC, 72 h, read-out: GI50 (μM) HUVEC, 72 h
How it was run: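 HUVECs seeded at 3,000 cells/well, attached overnight, then treated with varying drug concentrations. Proliferation read by MTS/PMS after 72 h.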

[6] = system: Hh signaling (Gli1 mRNA) in C3H10T1/2 cells; experiment: Down-regulation of endogenous Gli1 mRNA in Hh-dependent C3H10T1/2 cells; type: cell-based, mouse; settings: Mus musculus
How it was run: as §2

[7] = biological target: T2, P-gp (Homo sapiens, UniProt P08183); experiment: P-gp transporter substrate assay; type: in vitro ADME
T2 construct: expressed in transfected cells; host or cells: Madin Darby canine kidney cells (MDCK)
T2 sequence (P08183 whole entry): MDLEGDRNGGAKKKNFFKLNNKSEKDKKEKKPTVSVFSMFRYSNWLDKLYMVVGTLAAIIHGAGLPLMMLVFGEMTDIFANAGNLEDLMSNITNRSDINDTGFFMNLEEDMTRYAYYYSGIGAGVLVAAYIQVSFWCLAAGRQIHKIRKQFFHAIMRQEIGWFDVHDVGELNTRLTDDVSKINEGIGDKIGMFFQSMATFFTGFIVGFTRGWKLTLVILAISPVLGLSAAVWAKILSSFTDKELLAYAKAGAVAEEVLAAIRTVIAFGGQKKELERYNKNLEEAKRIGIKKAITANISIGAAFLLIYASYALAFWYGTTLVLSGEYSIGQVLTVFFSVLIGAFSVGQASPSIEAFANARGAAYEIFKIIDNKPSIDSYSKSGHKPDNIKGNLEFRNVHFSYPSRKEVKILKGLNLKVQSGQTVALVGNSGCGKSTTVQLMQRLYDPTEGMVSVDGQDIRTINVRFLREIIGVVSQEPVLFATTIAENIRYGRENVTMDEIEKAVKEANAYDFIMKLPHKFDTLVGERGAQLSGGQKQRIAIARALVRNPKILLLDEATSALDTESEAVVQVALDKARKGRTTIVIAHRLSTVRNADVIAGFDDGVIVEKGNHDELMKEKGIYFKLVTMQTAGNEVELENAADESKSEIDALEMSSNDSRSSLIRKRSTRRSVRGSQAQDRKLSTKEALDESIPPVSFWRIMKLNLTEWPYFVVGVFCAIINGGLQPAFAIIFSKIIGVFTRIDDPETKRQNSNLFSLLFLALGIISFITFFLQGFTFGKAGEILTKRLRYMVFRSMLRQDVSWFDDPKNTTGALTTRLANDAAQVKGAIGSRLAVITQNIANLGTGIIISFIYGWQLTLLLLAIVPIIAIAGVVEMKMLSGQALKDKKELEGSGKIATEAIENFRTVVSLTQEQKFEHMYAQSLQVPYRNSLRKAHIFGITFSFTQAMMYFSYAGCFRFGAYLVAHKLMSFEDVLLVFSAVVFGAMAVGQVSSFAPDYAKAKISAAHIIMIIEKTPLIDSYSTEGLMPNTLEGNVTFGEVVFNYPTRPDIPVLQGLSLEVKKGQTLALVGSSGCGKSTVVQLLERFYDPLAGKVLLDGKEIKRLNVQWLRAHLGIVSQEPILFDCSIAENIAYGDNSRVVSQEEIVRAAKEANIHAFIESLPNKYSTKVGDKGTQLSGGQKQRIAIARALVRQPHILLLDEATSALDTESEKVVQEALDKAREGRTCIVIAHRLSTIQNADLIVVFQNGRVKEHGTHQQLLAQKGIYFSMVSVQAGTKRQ
From the text: as §1

## CC[C@@H]([C@H](C)O)n1ncn(-c2ccc(N3CCN(c4ccc(OC[C@@H]5CO[C@@](Cn6cncn6)(c6ccc(F)cc6F)C5)cc4)CC3)cc2)c1=O [PSZ, posaconazole, reference compound]
[1]
  Papp at 30 min, 10 μM: 46 ×10⁻⁶ cm/s
[2]
  substrate of BCRP: not a substrate
[3]; 48 h, read-out: IC50 (μM) ASZ, 48 hr incubation
  IC50: 0.54 ± 0.05 µM
[3]; read-out: IC50 (μM) Gli1-ASZs
  IC50: 0.54 ± 0.05 µM
[4]
  IC50: 0.89 ± 0.1 µM
[5]
  GI50: 1.6 ± 0.02 µM
[6]; C3H 10T1/2, 24 h, read-out: IC50 (μM) C3H10T1/2, 24 hr incubation
  IC50: 0.14 ± 0.02 µM
[6]; C3H 10T1/2, read-out: % Hh inhibition
  inhibition at 1 µM: 95%
[6]; C3H 10T1/2, read-out: IC50 (μM) Gli1-C3Hs
  IC50: 0.01 ± 0.005 µM
[6]; C3H 10T1/2, read-out: IC50 down-regulation of Gli1, C3H10T1/2 cells
  IC50: 0.01 µM
[7]
  substrate of P-gp: not a substrate
